Data on four molecules can be found in paper PMC10428205, “Cytotoxicity of Ruthenium(II) Arene Complexes Containing Functionalized Ferrocenyl β-Diketonate Ligands” (Organometallics, 2023).

Several values for one entry are separate records, joined by “and”; a condition that tells them apart may be missing. Identical values can stand only once. Like-named read-outs stand apart in the source and are kept apart here.

Series [1] has as its system MIA PaCa-2. The experiment in a line: 24 and 48 h chemosensitivity (MTT, with recovery period). It counts as cell-based, human. As for the experimental part:
(§1) LogP = Log ( [C]final ) Eqn1
(§2) 96 h Chemosensitivity Studies
(§3) In vitro chemosensitivity tests were performed at both the University of Huddersfield and the Institute of Cancer Therapeutics, Bradford, in a sterile Class II Biological Safety Cabinet fitted with a HEPA filtered laminar airflow.
(§4) Cellular assays were conducted against human pancreatic carcinoma (MIA PaCa-2), human colorectal carcinoma p53-wildtype (HCT116 p53+/+), and human non-cancerous epithelial retinal cells (ARPE-19). The ARPE-19 cells were obtained from the American Type Culture Collection and provided by the University of Huddersfield. All cell lines were routinely maintained as monolayer cultures in appropriate complete medium and maintained in either T-25 or T-75 flasks at 37 °C and 5% CO2. MIA PaCa-2 and ARPE-19 cells were cultured in high glucose DMEM-F12 medium containing 10% foetal calf serum, and HCT116 p53+/+ was cultured in RPMI 1640 supplemented with 10% foetal calf serum. All medium was supplemented with sodium pyruvate (1 mM) and L-glutamine (2 mM), and prior to chemosensitivity studies, cell monolayers were passaged using Trypsin-EDTA and diluted to a concentration of 1 x 10^4 cells/mL. All assays were conducted using 96-well plates, in which 100 mL of the 1 x 10^4 cells/mL cell suspension was added to each well and incubated for 24 h at 37 °C and 5% CO2. After 24 h, 100 mL of drug dilutions (fresh 100 mM stock solutions in DMSO) in media were added to the plates and then incubated for a further 96 h at 37°C and 5% CO2 (48 h + 48 h recovery period were used for the shorter exposures with MIA PaCa-2 cells only). After 96 h, 20 mL MTT (3-(4,5-dimethylthiazol-2-yl)-2,5-diphenyltetrazolium bromide, 5 mg/mL) was added to each well and incubated for 3 h at 37 °C and 5% CO2. All solutions were then removed from the 96-well plates via pipette and 150 mL of DMSO added to each well to dissolve the purple formazan crystals. After mixing well, the absorbance of each well was measured at 540 nm using a ThermoFisher Multiskan FC spectrophotometer microplate reader. Using the blank and 100% cell controls, the % cell viability was determined [(abs. of compound containing wells – abs. media wells)/(abs. 100% cell suspension well control)] and from this the % cell death (100%- % cell viability) was calculated. On a logarithmic scale, the percentage cell death was plotted against the concentration of compound, and from this the half maximal inhibitory concentration (IC50) value was determined. Each of the experiments were performed in triplicate with mean values being stated as the IC50 ± Standard Deviation (SD).
24 and 48 h Chemosensitivity Studies
The same experimental protocol described for the 96 h MTT assay was used, and the MIA PaCa-2 cells were incubated for either 24 or 48 h, with a 72 or 48 h recovery period respectively. […]
(§5) All assays were conducted in triplicate.

Series [2] in a line: Cyclic voltammetry.
Method: To test that the redox potential is within a biological relevant region, cyclic voltammetry (CV) experiments are conducted on complexes 1, 2, 4, and 7 and their corresponding ferrocenyl β-diketonate ligands L1, L2, L4, and L7 for reference.
Inlet: scan of the fully reversible Fc*/Fc*^+ redox couple of 4 using scanning speeds between 0.05 and 0.25 V/s.
Series [3] concerns MIA PaCa-2. It counts as cell-based. The note with it: for IC50: 96 h MTT, normoxic, ± SD, read-out: IC50 against MIA PaCa-2; for Selectivity index (SI), IC50 ARPE-19 / IC50 MIA PaCa-2: 96 h, * = minimum value as at least one IC50 > 100. As to the method:
as §1, §2, §3
Cellular assays were conducted against human pancreatic carcinoma (MIA PaCa-2), human colorectal carcinoma p53-wildtype (HCT116 p53+/+), and human non-cancerous epithelial retinal cells (ARPE-19). […]
were obtained from the American Type Culture Collection and provided by the University of Huddersfield. All cell lines were routinely maintained as monolayer cultures in appropriate complete medium and maintained in either […]
T-25 or T-75 flasks at 37 °C and 5% CO2.
10% foetal calf serum. All medium was supplemented with sodium pyruvate (1 mM) and L-glutamine (2 mM), and prior to chemosensitivity studies, cell monolayers were passaged using Trypsin-EDTA and diluted to a […]
cells/mL cell suspension was added to each well and incubated for 24 h at 37 °C and 5% CO2. After 24 h, 100 mL of drug dilutions (fresh 100 mM stock solutions in DMSO) in media were added to the plates and then incubated for a further 96 h at 37°C and 5% CO2 (48 h + 48 h recovery period were used for the shorter exposures with MIA PaCa-2 cells only). After 96 h, 20 mL MTT (3-(4,5-dimethylthiazol-2-yl)-2,5-diphenyltetrazolium bromide, 5 mg/mL) was added to each well and incubated for 3 h at 37 °C and 5% CO2. All solutions were then removed from the 96-well plates via pipette and […] of DMSO added to each well to dissolve the purple formazan […]
FC spectrophotometer microplate reader. Using the blank and 100% cell controls, the % cell viability was determined [(abs. of compound containing wells – abs. media wells)/(abs. 100% cell suspension well control)] and from this the % cell death (100%- % cell viability) was calculated. On a logarithmic scale, the percentage cell death was plotted against the concentration of compound, and from this the half maximal inhibitory concentration (IC50) value was determined. Each of the experiments were performed in triplicate with mean values being stated as the IC50 ± Standard Deviation (SD). […]

In series [4] the test system is MIA PaCa-2. The note with it: read-out: IC50 against MIA PaCa-2 (previously reported analogue); cited from earlier work.
In series [5] the test system is ARPE-19. The experiment in a line: 96 h MTT chemosensitivity assay, normal cells. The note with it: normal retinal epithelial cells, ± SD, read-out: IC50 against ARPE-19. It counts as cell-based, human. As to the method: as §1, §2, §3
as §4, with “After 24 h, 100 mL of drug dilutions (fresh 100 mM stock solutions in DMSO) in media were added to the plates and then incubated for a further 96 h at 37°C and 5% CO2 (48 h + 48 h recovery period were used for the shorter exposures with MIA PaCa-2 cells only). After 96 h, 20 mL MTT (3-(4,5-dimethylthiazol-2-yl)-2,5-diphenyltetrazolium bromide, 5 mg/mL) was added to each well and incubated for 3 h at 37 °C and 5% CO2. All solutions were then removed from the 96-well plates via pipette and 150 mL of DMSO added to each well to dissolve the purple formazan crystals.” left out, “Each of the experiments were performed in triplicate with mean values being stated as the IC50 ± Standard Deviation (SD).” left out
Background: Tetrazolium dyes change colour on reduction, which living cells bring about.

Series [6] concerns HCT116 p53+/+. The experiment in a line: 96 h MTT chemosensitivity assay. The class given is cell-based, human. The note with it: for Selectivity index (SI), IC50 ARPE-19 / IC50 HCT116 p53+/+: 96 h, * = minimum value as at least one IC50 > 100; for IC50: 96 h MTT, ± SD, read-out: IC50 against HCT116 p53+/+. As to the method:
as §1, §2, §3
as §4, with “(SD). […]” for “(SD).”
as §5

The test system of series [7] is MIA PaCa-2. The experiment in a line: Chemosensitivity under hypoxic conditions (0.1% O2, 96 h MTT). It counts as cell-based, human. The settings on record: MIA PaCa-2, 0.1% O2, 96 h MTT. As for the experimental part:
as §1, §2, §3
as §4, with “After 24 h, 100 mL of drug dilutions (fresh 100 mM stock solutions in DMSO) in media were added to the plates and then incubated for a further 96 h at 37°C and 5% CO2 (48 h + 48 h recovery period were used for the shorter exposures with MIA PaCa-2 cells only). After 96 h, 20 mL MTT (3-(4,5-dimethylthiazol-2-yl)-2,5-diphenyltetrazolium bromide, 5 mg/mL) was added to each well and incubated for 3 h at 37 °C and 5% CO2. All solutions were then removed from the 96-well plates via pipette and 150 mL of DMSO added to each well to dissolve the purple formazan crystals.” left out, “Each of the experiments were performed in triplicate with mean values being stated as the IC50 ± Standard Deviation (SD).” left out

`O=C(C=C(O)c1ccco1)[c-]1cccc1.[Fe+2].c1cc[cH-]c1` [Complex L4]: the IC50 in series [1] (MIA PaCa-2, 24 h exposure + 72 h recovery, read-out: IC50 values ± SD, 24 h) is over 100 µM; in series [1] (MIA PaCa-2, 48 h exposure + 48 h recovery, read-out: IC50 values ± SD, 48 h), 43 ± 1 µM; in series [3], 42.1 ± 0.8 µM. Moreover, the “E0′ (Fc*/Fc*+)” value in series [2] (0.1 M TBAPF6 in acetonitrile, vs SCE, Fc/Fc+ = 0.40 V internal standard) is reported as 0.63 V. Further, in series [2] (irreversible reduction, vs SCE), the “EP Red” value is “–1.70 V”. In series [2] (scan speed 0.05 V/s), the “E0’ (Fc*/Fc*+) at 0.05 V/s” value stood at 0.64 V. For the same molecule, the “E0’ (Fc*/Fc*+) at 0.10 V/s” value in series [2] (scan speed 0.10 V/s) was 0.63 V. Further, the “E0’ (Fc*/Fc*+) at 0.25 V/s” value in series [2] (scan speed 0.25 V/s) turned out to be 0.63 V.

For the molecule [(bpy)2(Fc-acac)Ru][PF6] [Figure 1F], the IC50 in series [4] was 110 ± 10 nM.

Turning to `N.N.O=C([O-])C1(C(=O)[O-])CCC1.[Pt+2]` [CARB, carboplatin, reference compound], the IC50 in series [5] is 77 ± 10 µM; in series [6] it was 32 ± 11 µM; in series [3] it was 36 ± 3 µM. Further, in series [6], the “Selectivity index (SI), IC50 ARPE-19 / IC50 HCT116 p53+/+” value came out at 2.4. For the same molecule, in series [3], the “Selectivity index (SI), IC50 ARPE-19 / IC50 MIA PaCa-2” value amounted to 2.2.

As for `O=C1[O][Pt]2([NH][C@@H]3CCCC[C@H]3[NH]2)[O]C1=O` [OXA, oxaliplatin, reference compound], the IC50 is 3 µM and 6 µM in series [5]; 0.9 ± 0.1 µM in series [6]; 6 ± 1 µM in series [3]. Moreover, in series [7], the “IC50 under hypoxic conditions” value is “decrease in cytotoxicity”. Also, the “Selectivity index (SI), IC50 ARPE-19 / IC50 HCT116 p53+/+” value in series [6] is 3.2. Besides, the “Selectivity index (SI), IC50 ARPE-19 / IC50 MIA PaCa-2” value in series [3] stood at 0.5.
